Reference: patent publication US20240018128A1, “PESTICIDALLY ACTIVE HETEROCYCLIC DERIVATIVES WITH SULFUR CONTAINING SUBSTITUENTS” (SYNGENTA CROP PROTECTION AG, priority 2020, published 2024)

Assays:
Type in all cases: in vivo
[1] = tested on: Diabrotica balteata (corn root worm); experiment: Example B1: Activity against Diabrotica balteata (corn root worm); details: 96 h, application rate 200 ppm, maize sprouts sprayed, L2 larvae, 4 days after infestation, read-out: effect in at least one of the two categories (mortality or growth inhibition)
Experimental: Example B1: Activity Against Diabrotica Balteata (Corn Root Worm)
Maize sprouts placed onto an agar layer in 24-well microtiter plates were treated with aqueous test solutions prepared from 10,000 ppm DMSO stock solutions by spraying. After drying, the plates were infested with L2 larvae (6 to 10 per well). The samples were assessed for mortality and growth inhibition in comparison to untreated samples 4 days after infestation.

[2] = tested on: Euschistus heros (neotropical brown stink bug); experiment: Example B2: Activity against Euschistus heros (neotropical brown stink bug); details: 120 h, application rate 200 ppm, soybean leaves sprayed, N2 nymphs, 5 days after infestation, read-out: effect in at least one of the two categories (mortality or growth inhibition)
Experimental: Example B2: Activity Against Euschistus heros (Neotropical Brown Stink Bug)
Soybean leaves on agar in 24-well microtiter plates were sprayed with aqueous test solutions prepared from 10,000 ppm DMSO stock solutions. After drying the leaves were infested with N2 nymphs. The samples were assessed for mortality and growth inhibition in comparison to untreated samples 5 days after infestation.

[3] = tested on: Frankliniella occidentalis (western flower thrips); experiment: Example B3: Activity against Frankliniella occidentalis (western flower thrips), feeding/contact activity; details: foliar, 168 h, application rate 200 ppm, sunflower leaf discs sprayed, population of mixed ages, 7 days after infestation
Experimental: Example B3: Activity Against Frankliniella occidentalis (Western Flower Thrips) Feeding/Contact Activity
Sunflower leaf discs were placed on agar in 24-well microtiter plates and sprayed with aqueous test solutions prepared from 10,000 DMSO stock solutions. After drying the leaf discs were infested with a Frankliniella population of mixed ages. The samples were assessed for mortality 7 days after infestation.

[4] = tested on: Myzus persicae (green peach aphid); experiment: Example B4: Activity against Myzus persicae (green peach aphid), feeding/contact activity; details: foliar, 144 h, application rate 200 ppm, sunflower leaf discs sprayed, aphid population of mixed ages, 6 days after infestation
Experimental: Example B4: Activity Against Myzus persicae (Green Peach Aphid) Feeding/Contact Activity
Sunflower leaf discs were placed onto agar in a 24-well microtiter plate and sprayed with aqueous test solutions prepared from 10,000 ppm DMSO stock solutions. After drying, the leaf discs were infested with an aphid population of mixed ages. The samples were assessed for mortality 6 days after infestation.

[5] = tested on: Plutella xylostella (diamond back moth); experiment: Example B5: Activity against Plutella xylostella (diamond back moth); details: 192 h, application rate 200 ppm, artificial diet treated by pipetting, eggs, 8 days after infestation, read-out: effect in at least one of the two categories (mortality or growth inhibition)
Experimental: Example B5: Activity Against Plutella xylostella (Diamond Back Moth)
24-well microtiter plates with artificial diet were treated with aqueous test solutions prepared from 10,000 ppm DMSO stock solutions by pipetting. After drying, Plutella eggs were pipetted through a plastic stencil onto a gel blotting paper and the plate was closed with it. The samples were assessed for mortality and growth inhibition in comparison to untreated samples 8 days after infestation. The following compounds gave an effect of at least 80% in at least one of the two categories (mortality or growth inhibition) at an application rate of 200 ppm: P1, P2, P4, P5, P6, P7, P9, P10, P11, P12, P13, P14, P15, P16, P17, P18.

[6] = tested on: Spodoptera littoralis (Egyptian cotton leaf worm); experiment: Example B6: Activity against Spodoptera littoralis (Egyptian cotton leaf worm); details: foliar, 72 h, application rate 200 ppm, cotton leaf discs sprayed, L1 larvae, 3 days after infestation, read-out: control (mortality, anti-feeding effect or growth inhibition)
Experimental: Example B6: Activity Against Spodoptera littoralis (Egyptian Cotton Leaf Worm)
Cotton leaf discs were placed onto agar in 24-well microtiter plates and sprayed with aqueous test solutions prepared from 10,000 ppm DMSO stock solutions. After drying the leaf discs were infested with five L1 larvae. The samples were assessed for mortality, anti-feeding effect, and growth inhibition in comparison to untreated samples 3 days after infestation. Control of Spodoptera littoralis by a test sample is given when at least one of the categories mortality, anti-feedant effect, and growth inhibition is higher than the untreated sample.

[7] = tested on: Chilo suppressalis (striped rice stemborer); experiment: Example B8: Activity against Chilo suppressalis (striped rice stemborer); details: 144 h, application rate 200 ppm, artificial diet treated by pipetting, L2 larvae, 6 days after infestation, read-out: control (mortality, anti-feeding effect or growth inhibition)
Experimental: Example B8: Activity Against Chilo suppressalis (Striped Rice Stemborer)
24-well microtiter plates with artificial diet were treated with aqueous test solutions prepared from 10,000 ppm DMSO stock solutions by pipetting. After drying, the plates were infested with L2 larvae (6-8 per well). The samples were assessed for mortality, anti-feeding effect, and growth inhibition in comparison to untreated samples 6 days after infestation. Control of Chilo suppressalis by a test sample is given when at least one of the categories mortality, anti-feedant effect, and growth inhibition is higher than the untreated sample.

[8] = tested on: Myzus persicae (green peach aphid); experiment: Example B9: Activity against Myzus persicae (green peach aphid), systemic activity; details: 144 h, test rate 24 ppm, roots of infested pea seedlings placed into test solution, 6 days
Experimental: Example B9: Activity Against Myzus persicae (Green Peach Aphid). Systemic Activity
Roots of pea seedlings infested with an aphid population of mixed ages were placed directly into aqueous test solutions prepared from 10,000 DMSO stock solutions. The samples were assessed for mortality 6 days after placing seedlings into test solutions.

[9] = tested on: Bemisia tabaci (cotton white fly); experiment: Example B7: Activity against Bemisia tabaci (cotton white fly), feeding/contact activity; details: foliar, 144 h, application rate 200 ppm, cotton leaf discs sprayed, adult white flies, 6 days after incubation
Experimental: Example B7: Activity Against Bemisia tabaci (Cotton White Fly) Feeding/Contact Activity
Cotton leaf discs were placed on agar in 24-well microtiter plates and sprayed with aqueous test solutions prepared from 10,000 ppm DMSO stock solutions. After drying the leaf discs were infested with adult white flies. The samples were checked for mortality 6 days after incubation.

CCS(=O)(=O)c1c(N2Cc3ccc(OC(F)(F)F)cc3C2=O)nc(-c2cnn(C3CC3)c2)n1C [Compound P1, 2-[2-(1-cyclopropylpyrazol-4-yl)-5-ethylsulfonyl-1-methyl-imidazol-4-yl]-6-(trifluoromethoxy)isoindolin-1-one]
≥ 80%: mortality or growth inhibition at 200 ppm [1] | percent effect (mortality or growth inhibition) at 200 ppm [2] | mortality at 200 ppm [3] | mortality at 200 ppm [4] | effect (mortality or growth inhibition) at 200 ppm [5] | control at 200 ppm [6] | control at 200 ppm [7]

CCS(=O)(=O)c1c(N2Cc3ncc(C(F)(F)F)cc3C2=O)nc(-c2cnn(CC(F)(F)F)c2)n1C [Compound P10, 6-[5-ethylsulfonyl-1-methyl-2-[1-(2,2,2-trifluoroethyl)pyrazol-4-yl]imidazol-4-yl]-3-(trifluoromethyl)-7H-pyrrolo[3,4-b]pyridin-5-one]
≥ 80%: mortality or growth inhibition at 200 ppm [1] | percent effect (mortality or growth inhibition) at 200 ppm [2] | mortality at 200 ppm [4] | effect (mortality or growth inhibition) at 200 ppm [5] | control at 200 ppm [6] | control at 200 ppm [7] | mortality at 24 ppm [8]

CCS(=O)(=O)c1c(N2Cc3ncc(C(F)(F)F)cc3C2=O)nc(-c2cnn(C(F)F)c2)n1C [Compound P13, 6-[2-[1-(difluoromethyl)pyrazol-4-yl]-5-ethylsulfonyl-1-methyl-imidazol-4-yl]-3-(trifluoromethyl)-7H-pyrrolo[3,4-b]pyridin-5-one]
≥ 80%: mortality or growth inhibition at 200 ppm [1] | percent effect (mortality or growth inhibition) at 200 ppm [2] | mortality at 200 ppm [4] | effect (mortality or growth inhibition) at 200 ppm [5] | control at 200 ppm [6] | control at 200 ppm [7] | mortality at 24 ppm [8]

CCS(=O)(=O)c1c(N2Cc3ncc(C(F)(F)F)cc3C2=O)nc(C2CC2)n1C [Compound P17, 6-(2-cyclopropyl-5-ethylsulfonyl-1-methyl-imidazol-4-yl)-3-(trifluoromethyl)-7H-pyrrolo[3,4-b]pyridin-5-one]
≥ 80%: mortality or growth inhibition at 200 ppm [1] | mortality at 200 ppm [4] | effect (mortality or growth inhibition) at 200 ppm [5] | control at 200 ppm [6] | mortality at 200 ppm [9] | control at 200 ppm [7] | mortality at 24 ppm [8]
